According to publication PMC5216056 (Nature Communications, 2017):
Where two headings read alike, the source gives them in different places.

Key:
[1] = 1 μM
mu (MOP) (h) = molecular target: T1, mu (MOP) (h) (Homo sapiens, UniProt P35372); experiment: CEREP panel; type: binding; conditions: 10 µM
T1 construct: CEREP (contract assay)

N muscle-type (h) = molecular target: T2, N muscle-type (h) (Homo sapiens, UniProt P02708+P07510+P11230+Q07001); experiment: CEREP panel; type: binding; conditions: for % inhibition N muscle-type (h): 10 µM
T2 construct: CEREP (contract assay)
T2 sequence (P02708 21-457): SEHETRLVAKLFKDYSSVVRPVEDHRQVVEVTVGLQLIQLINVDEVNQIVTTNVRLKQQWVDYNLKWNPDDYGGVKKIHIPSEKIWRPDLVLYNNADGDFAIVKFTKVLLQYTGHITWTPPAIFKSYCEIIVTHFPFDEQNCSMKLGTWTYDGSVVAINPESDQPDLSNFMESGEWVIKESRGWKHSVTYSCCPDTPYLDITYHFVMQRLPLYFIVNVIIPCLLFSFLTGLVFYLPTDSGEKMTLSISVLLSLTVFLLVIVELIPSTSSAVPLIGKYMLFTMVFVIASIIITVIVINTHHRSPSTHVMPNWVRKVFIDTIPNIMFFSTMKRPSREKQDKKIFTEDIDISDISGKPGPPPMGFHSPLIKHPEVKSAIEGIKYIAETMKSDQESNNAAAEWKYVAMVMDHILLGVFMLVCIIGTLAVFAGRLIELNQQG
T2 sequence (P11230 24-501): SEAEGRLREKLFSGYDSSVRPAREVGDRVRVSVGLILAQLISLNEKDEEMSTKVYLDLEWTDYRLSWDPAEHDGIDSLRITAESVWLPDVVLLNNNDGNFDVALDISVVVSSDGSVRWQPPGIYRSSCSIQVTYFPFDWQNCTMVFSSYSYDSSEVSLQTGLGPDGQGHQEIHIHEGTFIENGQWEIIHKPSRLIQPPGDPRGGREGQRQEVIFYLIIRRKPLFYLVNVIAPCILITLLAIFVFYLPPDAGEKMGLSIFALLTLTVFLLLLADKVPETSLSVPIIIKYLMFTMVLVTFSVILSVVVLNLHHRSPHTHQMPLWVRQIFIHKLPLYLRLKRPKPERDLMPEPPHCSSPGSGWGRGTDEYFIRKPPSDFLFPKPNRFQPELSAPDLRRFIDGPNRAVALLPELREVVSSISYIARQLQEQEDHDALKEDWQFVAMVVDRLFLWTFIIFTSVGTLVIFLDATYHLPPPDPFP
T2 sequence (Q07001 22-517): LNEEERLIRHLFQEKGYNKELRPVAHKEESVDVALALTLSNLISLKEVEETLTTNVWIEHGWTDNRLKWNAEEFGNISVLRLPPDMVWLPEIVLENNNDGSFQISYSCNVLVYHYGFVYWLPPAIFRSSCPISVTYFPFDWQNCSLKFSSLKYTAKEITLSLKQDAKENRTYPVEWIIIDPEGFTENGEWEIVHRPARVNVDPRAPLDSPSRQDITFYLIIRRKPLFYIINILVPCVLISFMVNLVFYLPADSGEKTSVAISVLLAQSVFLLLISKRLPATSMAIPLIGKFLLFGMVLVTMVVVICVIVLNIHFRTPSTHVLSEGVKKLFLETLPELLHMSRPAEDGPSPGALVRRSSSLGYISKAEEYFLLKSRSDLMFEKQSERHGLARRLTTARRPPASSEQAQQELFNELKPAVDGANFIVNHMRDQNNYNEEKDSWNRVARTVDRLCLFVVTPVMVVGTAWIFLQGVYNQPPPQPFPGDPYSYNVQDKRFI
T2 sequence (P07510 23-517): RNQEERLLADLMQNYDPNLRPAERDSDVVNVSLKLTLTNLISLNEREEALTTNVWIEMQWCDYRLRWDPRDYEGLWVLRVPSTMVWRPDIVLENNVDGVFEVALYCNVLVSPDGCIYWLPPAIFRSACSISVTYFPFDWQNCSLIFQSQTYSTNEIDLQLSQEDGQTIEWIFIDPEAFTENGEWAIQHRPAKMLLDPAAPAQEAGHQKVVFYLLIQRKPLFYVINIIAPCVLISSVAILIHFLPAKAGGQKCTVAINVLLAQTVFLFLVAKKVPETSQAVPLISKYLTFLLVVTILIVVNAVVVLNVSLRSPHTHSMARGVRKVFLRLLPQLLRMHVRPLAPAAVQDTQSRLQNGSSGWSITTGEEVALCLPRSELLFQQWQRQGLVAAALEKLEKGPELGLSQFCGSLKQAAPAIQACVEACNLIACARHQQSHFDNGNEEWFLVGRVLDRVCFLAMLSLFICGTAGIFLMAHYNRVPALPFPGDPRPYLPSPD

AT1 (h) = molecular target: T3, AT1 (h) (Homo sapiens, UniProt P30556); experiment: CEREP panel; type: binding; conditions: 10 µM
T3 construct: CEREP
T3 sequence (P30556 1-359): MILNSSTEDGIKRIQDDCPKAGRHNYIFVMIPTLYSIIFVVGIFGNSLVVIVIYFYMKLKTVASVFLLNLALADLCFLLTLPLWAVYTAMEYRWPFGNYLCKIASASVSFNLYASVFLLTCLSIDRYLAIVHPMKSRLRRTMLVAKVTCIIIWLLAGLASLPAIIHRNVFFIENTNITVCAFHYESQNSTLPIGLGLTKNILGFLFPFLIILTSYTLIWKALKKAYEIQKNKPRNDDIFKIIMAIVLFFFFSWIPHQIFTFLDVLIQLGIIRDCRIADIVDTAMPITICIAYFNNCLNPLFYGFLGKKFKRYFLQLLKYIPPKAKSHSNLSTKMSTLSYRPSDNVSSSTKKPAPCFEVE

[2] = molecular target: T4, norepinephrine transporter (h) (Homo sapiens, UniProt P23975); experiment: biochemical; type: binding; conditions: 10 µM
T4 construct: CEREP (contract assay)
T4 sequence (P23975 whole entry): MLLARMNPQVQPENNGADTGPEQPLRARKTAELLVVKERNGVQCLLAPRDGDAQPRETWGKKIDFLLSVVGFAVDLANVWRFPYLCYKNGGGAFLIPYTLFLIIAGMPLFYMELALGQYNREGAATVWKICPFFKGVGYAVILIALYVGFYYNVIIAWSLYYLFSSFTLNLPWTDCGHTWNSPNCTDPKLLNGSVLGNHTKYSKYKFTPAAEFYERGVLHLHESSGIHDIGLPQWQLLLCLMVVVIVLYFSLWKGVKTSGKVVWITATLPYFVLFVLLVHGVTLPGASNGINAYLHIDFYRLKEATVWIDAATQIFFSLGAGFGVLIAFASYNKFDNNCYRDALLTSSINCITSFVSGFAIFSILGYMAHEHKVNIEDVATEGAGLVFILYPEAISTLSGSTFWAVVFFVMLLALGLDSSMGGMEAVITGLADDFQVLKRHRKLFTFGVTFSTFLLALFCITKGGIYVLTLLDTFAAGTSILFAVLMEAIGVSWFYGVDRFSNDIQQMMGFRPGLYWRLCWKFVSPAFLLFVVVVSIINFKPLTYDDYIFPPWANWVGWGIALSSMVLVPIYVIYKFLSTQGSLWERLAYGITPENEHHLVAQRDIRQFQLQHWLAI

[3] = i.v., mice; for C0: 1.0-2.0 mg/kg, extrapolated
Na+ channel (site 2) = type: binding; conditions: 10 µM
AR (h) = experiment: CEREP panel; type: binding, human; conditions: 10 µM
[4] = 1 μM; remark: listed apart in the source
[5] = tested on: Ca2+ channel (L, diltiazem site); experiment: CEREP panel; type: binding; conditions: 10 µM
hCB1R [6] = molecular target: T5, hCB1R (Homo sapiens, UniProt P21554); experiment: cell-based
T5 construct: host or cells: CHO
T5 sequence (P21554 whole entry): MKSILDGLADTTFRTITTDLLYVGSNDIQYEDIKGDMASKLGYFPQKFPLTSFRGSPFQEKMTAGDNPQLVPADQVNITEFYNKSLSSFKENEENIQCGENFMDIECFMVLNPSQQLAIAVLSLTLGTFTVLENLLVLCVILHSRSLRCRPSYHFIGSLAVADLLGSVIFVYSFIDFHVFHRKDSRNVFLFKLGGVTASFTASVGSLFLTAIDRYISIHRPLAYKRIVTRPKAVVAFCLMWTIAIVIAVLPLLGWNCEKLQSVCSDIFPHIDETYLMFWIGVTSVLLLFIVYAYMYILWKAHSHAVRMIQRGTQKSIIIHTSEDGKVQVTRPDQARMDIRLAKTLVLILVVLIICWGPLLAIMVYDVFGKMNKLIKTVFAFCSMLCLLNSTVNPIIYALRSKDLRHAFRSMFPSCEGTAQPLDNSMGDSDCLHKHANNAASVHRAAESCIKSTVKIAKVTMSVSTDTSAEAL

Human recombinant TRPV1 = molecular target: T6, Human recombinant TRPV1 (Homo sapiens, UniProt Q8NER1); experiment: cell-based; type: cell-based; conditions: for IC50: read-out: TRPV1 IC50 for antagonism or desensitization; for EC50: read-out: TRPV1 Potency EC50
T6 construct: expressed in transfected cells; host or cells: HEK293 (TRPV1-HEK-293, gift from John Davis, GlaxoSmithKline)
T6 sequence (Q8NER1 whole entry): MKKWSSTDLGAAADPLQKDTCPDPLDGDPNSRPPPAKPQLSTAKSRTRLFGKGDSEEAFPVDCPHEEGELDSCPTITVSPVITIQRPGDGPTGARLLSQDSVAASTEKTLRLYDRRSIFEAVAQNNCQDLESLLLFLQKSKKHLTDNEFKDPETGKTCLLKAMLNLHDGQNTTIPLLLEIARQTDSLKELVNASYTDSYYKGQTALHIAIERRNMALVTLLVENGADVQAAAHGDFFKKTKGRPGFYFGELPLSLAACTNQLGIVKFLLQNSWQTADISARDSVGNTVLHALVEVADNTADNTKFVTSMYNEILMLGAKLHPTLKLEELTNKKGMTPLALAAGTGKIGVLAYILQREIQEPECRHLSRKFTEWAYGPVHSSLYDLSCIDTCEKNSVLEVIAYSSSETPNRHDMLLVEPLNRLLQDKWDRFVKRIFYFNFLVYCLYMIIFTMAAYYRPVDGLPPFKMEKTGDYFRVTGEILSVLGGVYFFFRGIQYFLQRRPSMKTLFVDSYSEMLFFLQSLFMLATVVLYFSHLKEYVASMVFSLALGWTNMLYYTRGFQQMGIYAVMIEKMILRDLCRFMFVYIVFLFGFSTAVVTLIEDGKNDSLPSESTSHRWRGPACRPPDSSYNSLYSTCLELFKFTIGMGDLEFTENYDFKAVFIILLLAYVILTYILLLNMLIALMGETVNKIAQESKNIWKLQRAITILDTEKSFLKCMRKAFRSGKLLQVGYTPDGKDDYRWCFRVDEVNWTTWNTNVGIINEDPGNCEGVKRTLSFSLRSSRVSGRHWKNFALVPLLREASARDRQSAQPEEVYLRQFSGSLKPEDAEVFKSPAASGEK

[7] = tested on: AEA cellular uptake in U937 cells; experiment: cells; type: cell-based, human; conditions: for AEA reuptake Efficacy (% inhibition) U937 cells: from dose-response; for IC50: read-out: AEA reuptake IC50 (95% CI) U937 cells; for AEA reuptake % inhibition, effect at 10 µM, U937 cells: 10 µM (values marked *)
hCB1R [8] = molecular target: T5, hCB1R; experiment: biochemical; type: binding; conditions: CHO membranes; Leiden, HU210 and SR144528 from Roche
hCB2R = hCB2R (Homo sapiens, UniProt P34972); experiment: biochemical; type: binding
hCB2R, sequence (P34972 whole entry): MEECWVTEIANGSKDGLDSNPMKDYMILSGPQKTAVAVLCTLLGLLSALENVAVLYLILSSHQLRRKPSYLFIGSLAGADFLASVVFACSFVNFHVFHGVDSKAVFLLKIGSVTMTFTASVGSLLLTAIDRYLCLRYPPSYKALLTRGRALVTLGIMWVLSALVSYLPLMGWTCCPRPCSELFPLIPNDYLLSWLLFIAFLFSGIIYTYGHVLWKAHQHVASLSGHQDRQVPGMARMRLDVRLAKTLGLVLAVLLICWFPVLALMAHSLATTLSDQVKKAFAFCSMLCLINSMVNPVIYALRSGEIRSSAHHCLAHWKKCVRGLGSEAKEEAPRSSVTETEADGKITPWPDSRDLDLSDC

[9] = tested on: AEA cellular uptake in HMC-1 cells; experiment: cells; type: cell-based, human; conditions: read-out: AEA reuptake IC50 (95% CI) HMC-1 cells; FAAH-deficient cells
Rat recombinant TRPV2 = molecular target: T7, Rat recombinant TRPV2 (Rattus norvegicus, UniProt Q9WUD2); experiment: cell-based; type: cell-based; conditions: for EC50: read-out: TRPV2 Potency EC50; for IC50: vs LPC 3μM, read-out: TRPV2 IC50 for antagonism or desensitization
T7 construct: expressed in transfected cells; host or cells: HEK293 (plasmid a gift from HB Bradshaw, Indiana University)
T7 sequence (Q9WUD2 1-761): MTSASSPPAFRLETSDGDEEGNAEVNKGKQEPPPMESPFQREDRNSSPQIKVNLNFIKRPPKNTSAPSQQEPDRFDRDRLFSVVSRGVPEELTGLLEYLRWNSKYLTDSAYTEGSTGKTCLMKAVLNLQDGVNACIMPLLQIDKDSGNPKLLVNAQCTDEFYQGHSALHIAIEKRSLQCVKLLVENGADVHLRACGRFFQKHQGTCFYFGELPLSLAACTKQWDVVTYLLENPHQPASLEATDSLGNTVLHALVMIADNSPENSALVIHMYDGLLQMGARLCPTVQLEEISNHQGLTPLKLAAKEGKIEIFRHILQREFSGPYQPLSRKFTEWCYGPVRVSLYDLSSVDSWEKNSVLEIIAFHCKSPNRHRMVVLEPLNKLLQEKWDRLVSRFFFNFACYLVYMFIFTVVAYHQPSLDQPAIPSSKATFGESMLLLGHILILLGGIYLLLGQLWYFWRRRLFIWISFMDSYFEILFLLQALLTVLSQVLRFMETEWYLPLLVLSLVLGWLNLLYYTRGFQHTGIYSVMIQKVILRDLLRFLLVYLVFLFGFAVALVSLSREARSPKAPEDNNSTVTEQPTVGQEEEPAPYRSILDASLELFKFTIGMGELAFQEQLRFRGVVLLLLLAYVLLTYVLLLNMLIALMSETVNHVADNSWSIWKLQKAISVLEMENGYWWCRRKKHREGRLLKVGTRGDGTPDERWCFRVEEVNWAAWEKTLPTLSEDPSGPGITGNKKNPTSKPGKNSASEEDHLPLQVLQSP

hCB1R [10] = molecular target: T5, hCB1R; experiment: cell-based; type: cell-based
hCB1R [11] = molecular target: T5, hCB1R; experiment: cell-based; type: cell-based; remark: listed apart in the source

T1 sequence (P35372 whole entry): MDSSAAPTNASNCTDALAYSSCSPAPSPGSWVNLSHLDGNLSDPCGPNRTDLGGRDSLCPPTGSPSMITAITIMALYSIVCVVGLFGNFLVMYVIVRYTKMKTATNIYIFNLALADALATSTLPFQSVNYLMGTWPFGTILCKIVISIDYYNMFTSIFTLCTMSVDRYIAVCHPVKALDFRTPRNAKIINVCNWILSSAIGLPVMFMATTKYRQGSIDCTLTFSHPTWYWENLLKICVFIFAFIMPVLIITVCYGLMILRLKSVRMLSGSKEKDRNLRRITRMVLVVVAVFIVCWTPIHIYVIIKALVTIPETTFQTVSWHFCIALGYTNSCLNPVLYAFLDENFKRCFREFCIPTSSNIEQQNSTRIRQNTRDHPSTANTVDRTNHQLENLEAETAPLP

| Molecule | CL hepatocytes mouse [1] [µL/min/mio cells] | % inhibition mu (MOP) (h) (mu (MOP) (h)) [%] | % inhibition N muscle-type (h) (N muscle-type (h)) [%] | % inhibition AT1 (h) (AT1 (h)) [%] | % inhibition norepinephrine transporter (h) [2] [%] | AUCinf [3] [ng·h/mL] | AUCinf/dose [3] [kg·ng·h/mL/mg] | AUClast [3] [ng·h/mL] | CL [3] [mL/min/kg] | T1/2 [3] [h] | C0 [3] [ng/mL] | % inhibition Na+ channel (site 2) (Na+ channel (site 2)) [%] | % inhibition AR (h) (AR (h)) [%] | CL microsomes mouse [4] [µL/min/mg protein] | % inhibition Ca2+ channel (L, diltiazem site) [5] [%] | TRPV1 Efficacy (% ionomycin 4μM) (Human recombinant TRPV1) [%] | IC50 (Human recombinant TRPV1) [µM] | IC50 [7] [µM] | IC50 [9] [µM] | TRPV2 Efficacy (% ionomycin 4μM) (Rat recombinant TRPV2) [%] | other results |
| --- | --- | --- | --- | --- | --- | --- | --- | --- | --- | --- | --- | --- | --- | --- | --- | --- | --- | --- | --- | --- | --- |
| CCCn1c(C)c(C(=O)c2cccc3ccccc23)c2ccccc21 [JWH015] | 205 | 7 | -12 | 21 | 39 | 174 | 158 | 163 | 105 | 2.6 | 438 | 50 | 0 | 989 | 33 | – | – | – | – | – | – |
| CN1CCCC[C@H]1Cn1cc(C(=O)c2cc([N+](=O)[O-])ccc2I)c2ccccc21 [(S)-AM1241] | 251 | 46 | 38 | 1 | 26 | 276 | 145 | 269 | 115 | 1.4 | 413 | 87 | 1 | 640 | 90 | 12.0 | > 50 | 3.7 | > 5 | 11.6 | Emax ± SEM cAMP hCB1R (hCB1R [6]): 16 ± 2; pEC50 ± SEM cAMP hCB1R (hCB1R [6]): < 5; EC50 (Human recombinant TRPV1): > 50 µM; AEA reuptake Efficacy (% inhibition) U937 cells [7]: 97%; pKi ± SEM hCB1R (hCB1R [8]): < 5; pKi ± SEM hCB2R (hCB2R; CHO membranes, Leiden, HU210 and SR144528 from Roche): 7.02 ± 0.15; EC50 (Rat recombinant TRPV2): 5 µM; IC50 (Rat recombinant TRPV2): 20.6 µM; Emax ± SEM pERK hCB1R (hCB1R [10]): 17 ± 3; pEC50 ± SEM pERK hCB1R (hCB1R [10]): < 4; pEC50 ± SEM GIRK hCB1R (hCB1R [11]): < 5; Emax ± SEM GIRK hCB1R (hCB1R [11]; normalized to CP55940): 19 ± 3% |
| SR144528 | – | 11 | -3 | 33 | 29 | – | – | – | – | – | – | 34 | -12 | – | 10 | < 10 | – | > 10 | > 10 | < 10 | AEA reuptake % inhibition, effect at 10 µM, U937 cells [7]: 30%; Emax ± SEM pERK hCB1R (hCB1R [10]): -21 ± 2; Emax ± SEM GIRK hCB1R (hCB1R [11]): 9 ± 4 |
| Cc1c(C(=O)c2cccc3ccccc23)c2cccc3c2n1[C@H](CN1CCOCC1)CO3 [WIN55212-2] | 568 | 21 | 7 | 29 | 33 | – | – | – | – | – | – | 68 | 8 | 745 | 55 | 44.4 | 35.8 ± 2.2 | 4.65 | > 5 | 17.0 | EC50 (Human recombinant TRPV1): 19.2 µM; AEA reuptake Efficacy (% inhibition) U937 cells [7]: 52%; EC50 (Rat recombinant TRPV2): 14.8 µM; IC50 (Rat recombinant TRPV2): 62 µM |
| COc1ccc(C(=O)c2c(C)n(CCN3CCOCC3)c3cc(I)ccc23)cc1 [AM630] | 101 | 21 | 5 | 17 | 38 | 197 | 197 | 177 | 85 | 2.9 | 69.8 | – | -7 | 468 | -11 | < 10 | > 100 | > 10 | > 10 | < 10 | AEA reuptake % inhibition, effect at 10 µM, U937 cells [7]: 23%; pKi ± SEM hCB2R (hCB2R): 7.39 ± 0.02; IC50 (Rat recombinant TRPV2): 35.6 µM |
| CCCCCCC(C)(C)c1ccc([C@@H]2C[C@H](O)CC[C@H]2CCCO)c(O)c1 [CP55940] | – | – | – | – | – | – | – | – | – | – | – | 71 | -28 | – | -7 | – | – | – | – | – | inhibition at 10 µM (mu (MOP) (h); read-out: % inhibition mu (MOP) (h)): 57%; inhibition at 10 µM (N muscle-type (h)): -4%; inhibition at 10 µM (AT1 (h); read-out: % inhibition AT1 (h)): 63%; inhibition at 10 µM ([2]; read-out: % inhibition norepinephrine transporter (h)): 89% |
